The source of these data is patent US11407736B2 (priority 2019, dated 2022).

Where two headings read alike, the source gives them in different places.

In one experiment the target is RIPK1 (Homo sapiens (Human), UniProt Q13546). As to the kind of experiment: RIPK1 ADP-Glo biochemical kinase assay. On the procedure: The final reaction volume was 5.0ul.
Adding 5 μl of ADP-Glo™ terminated the reaction.

The subject of the next experiment is L929 cells. As to the kind of experiment: L929 cell necroptosis assay (TNFa + zVAD, CellTiter-Glo). In kind it is cell-based, murine. The settings on record: Mus musculus. Put shortly:
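Necroptosis was read as CellTiter-Glo luminescence 18 hours after TNFa stimulation at 37° C, 5% CO2. Prior to that, L929 cells (10K/well, plated 18 h) received fresh medium with 40 uM zVAD-fmk plus 4-fold serially diluted compound.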

In a further experiment the test system is U937 cells. As to the kind of experiment: U937 cell necroptosis assay (TNFa + zVAD, CellTiter-Glo). It counts as cell-based, human. Conditions: Homo sapiens. In short, it runs like this: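 Necroptosis was induced with TNFa at 2 ng/mL final for 18 h at 37 °C, following 1 h compound pre-incubation in the presence of zVAD-fmk (60 uM for U937 plating medium, 40 uM for L929 medium). Luminescent CellTiter-Glo signal gave relative cell survival.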

Setting [1] is: read-out: RIPK1 ADP-Glo Kinase (IC50).
[2] abbreviates: L929, L929 cells, TNFa + zVAD, read-out: L929-CTG-recovery, L929, TNFa + zVAD (IC50).
Setting [3] is: U-937, U937 cells, TNFa + zVAD, read-out: U937 Zvad TNF CTG Recovery, U937, TNFa + zVAD (IC50).

Sequence of RIPK1 (Q13546 whole entry, species assumed): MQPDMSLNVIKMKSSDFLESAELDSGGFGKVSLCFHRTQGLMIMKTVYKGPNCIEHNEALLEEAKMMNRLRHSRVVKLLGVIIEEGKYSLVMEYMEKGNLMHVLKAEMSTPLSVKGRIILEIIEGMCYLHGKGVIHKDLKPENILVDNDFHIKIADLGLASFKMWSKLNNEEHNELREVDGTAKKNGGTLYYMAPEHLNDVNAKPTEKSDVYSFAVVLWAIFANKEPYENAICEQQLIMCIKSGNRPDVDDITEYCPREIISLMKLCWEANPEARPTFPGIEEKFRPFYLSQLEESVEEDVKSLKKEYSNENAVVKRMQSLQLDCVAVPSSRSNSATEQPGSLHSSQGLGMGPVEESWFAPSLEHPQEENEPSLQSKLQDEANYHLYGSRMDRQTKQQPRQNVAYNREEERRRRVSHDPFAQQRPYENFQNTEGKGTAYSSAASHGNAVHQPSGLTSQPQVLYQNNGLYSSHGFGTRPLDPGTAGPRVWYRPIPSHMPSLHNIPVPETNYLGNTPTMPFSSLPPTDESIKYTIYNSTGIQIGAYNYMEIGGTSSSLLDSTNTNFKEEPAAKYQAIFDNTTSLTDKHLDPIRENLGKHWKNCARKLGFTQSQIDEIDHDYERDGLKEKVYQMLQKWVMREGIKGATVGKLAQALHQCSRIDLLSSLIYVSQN

Regarding `CN1C(=O)[C@@H](NC(=O)c2n[nH]c(Cc3ccccc3)n2)COc2ccc(CCCCOCc3ccccn3)cc21` [Compound I-16, (S)-5-benzyl-N-(5-methyl-4-oxo-7-(4-(pyridin-2-ylmethoxy)butyl)-2,3,4,5-tetrahydrobenzo[b][1,4]oxazepin-3-yl)-1H-1,2,4-triazole-3-carboxamide], the half-maximal inhibitory concentration (IC50) came to 1.63 µM at RIPK1 (setting [1]), 5.67 µM in the experiment on L929 cells (setting [2]) and 0.0517 µM in the experiment on U937 cells (setting [3]).

`CN1C(=O)[C@@H](NC(=O)c2n[nH]c(Cc3ccccc3)n2)COc2cc(C#CC3(O)COC3)ccc21` [Compound I-73, (S)-5-benzyl-N-(8-((3-hydroxyoxetan-3-yl)ethynyl)-5-methyl-4-oxo-2,3,4,5-tetrahydrobenzo[b][1,4]oxazepin-3-yl)-1H-1,2,4-triazole-3-carboxamide]: the IC50 on RIPK1 (setting [1]) is 0.0429 µM; in the experiment on L929 cells (setting [2]) it was 0.0027 µM; in the experiment on U937 cells (setting [3]) it was 0.0117 µM.

For `CN1C(=O)[C@@H](NC(=O)c2n[nH]c(Cc3ccccc3F)n2)COc2ccc(C#CC(C)(C)O)cc21` [Compound I-80, (S)-5-(2-fluorobenzyl)-N-(7-(3-hydroxy-3-methylbut-1-yn-1-yl)-5-methyl-4-oxo-2,3,4,5-tetrahydrobenzo[b][1,4]oxazepin-3-yl)-1H-1,2,4-triazole-3-carboxamide], the IC50 on RIPK1 (setting [1]) was determined as 0.0206 µM; in the experiment with L929 cells (setting [2]), 0.0007 µM; with U937 cells (setting [3]), 0.0027 µM.

Consider `CN1C(=O)[C@@H](NC(=O)n2cc(Cc3ccccc3)cn2)COc2ccc(C#Cc3ccccn3)cc21` [Compound I-215, (S)-4-Benzyl-N-(5-methyl-4-oxo-7-(pyridin-2-ylethynyl)-2,3,4,5-tetrahydrobenzo[b][1,4]oxazepin-3-yl)-1H-pyrazole-1-carboxamide], for which the IC50 is 0.0321 µM on RIPK1 (setting [1]), 0.0209 µM in the experiment on L929 cells (setting [2]) and 0.0003 µM in the experiment on U937 cells (setting [3]).

`CN1C(=O)[C@@H](NC(=O)c2n[nH]c(Cc3ccccc3)n2)COc2ccc(CN3CCn4nc(C(F)(F)F)nc4C3)cc21` [Compound I-40, (S)-5-benzyl-N-(5-methyl-4-oxo-7-((2-(trifluoromethyl)-5,6-dihydro-[1,2,4]triazolo[1,5-a]pyrazin-7(8H)-yl)methyl)-2,3,4,5-tetrahydrobenzo[b][1,4]oxazepin-3-yl)-1H-1,2,4-triazole-3-carboxamide]: the IC50 was 0.0887 µM at RIPK1 (setting [1]), 0.0003 µM in the experiment on L929 cells (setting [2]) and 0.0023 µM in the experiment with U937 cells (setting [3]).

With `CN1C(=O)[C@@H](NC(=O)c2cc(Oc3ccccc3)ccn2)COc2ccc(C#CC3(O)CCCC3)cc21` [Compound I-98, (S)—N-(7-((1-hydroxycyclopentyl)ethynyl)-5-methyl-4-oxo-2,3,4,5-tetrahydrobenzo[b][1,4]oxazepin-3-yl)-4-phenoxypicolinamide], the IC50 came out at 0.0296 µM at RIPK1, 0.0368 µM in the experiment on L929 cells (setting [2]) and 0.0016 µM in the experiment on U937 cells (setting [3]).

For the compound `CC(C)[C@H](N)C(=O)OC1(C#Cc2ccc3c(c2)N(C)C(=O)[C@@H](NC(=O)c2cc(Oc4ccccc4)ccn2)CO3)COC1` [Compound I-160, 3-(((S)-5-methyl-4-oxo-3-(4-phenoxypicolinamido)-2,3,4,5-tetrahydrobenzo[b][1,4]oxazepin-7-yl)ethynyl)oxetan-3-yl L-valinate], the IC50 was determined as 0.0253 µM on RIPK1 (setting [1]), 0.0442 µM in the experiment with L929 cells (setting [2]) and 0.0009 µM with U937 cells (setting [3]).

Consider `COC(C)(C)C#Cc1ccc2c(c1)N(C)C(=O)[C@@H](NC(=O)c1cc(Oc3ccccc3)ccn1)CO2` [II-32, (S)—N-(7-(3-methoxy-3-methylbut-1-yn-1-yl)-5-methyl-4-oxo-2,3,4,5-tetrahydrobenzo[b][1,4]oxazepin-3-yl)-4-phenoxypicolinamide], for which the IC50 at RIPK1 (setting [1]) was 0.0505 µM; with L929 cells (L929, read-out: L929-CTG-recovery, L929, TNFa + zVAD (IC50), L929 cells, TNFa + zVAD), 0.0574 µM; in the experiment on U937 cells (U-937, read-out: U937 Zvad TNF CTG Recovery, U937, TNFa + zVAD (IC50), U937 cells, TNFa + zVAD), 0.0021 µM.
